Assay results published in the NIST ThermoML archive (doi:10.1021/je5004719).
Numbers after ± are expanded uncertainties.

Conditions: 101.33 kPa, Liquid; for speed of sound: Sing-around technique in a fixed-path interferometer; for mass density: Vibrating tube method

Structure (SMILES) | speed of sound (298.15 K) [m/s] | mass density (298.15 K) [kg/m3] | speed of sound (303.15 K) [m/s] | mass density (303.15 K) [kg/m3] | speed of sound (308.15 K) [m/s] | mass density (308.15 K) [kg/m3]
Cc1ccccc1C [1,2-dimethylbenzene] | 1346.2 ± 0.7 | 875.91 ± 1 | 1326.2 ± 0.7 | 871.7 ± 1 | 1306.1 ± 0.7 | 867.48 ± 1
Cc1ccccc1Cl [2-chlorotoluene] | 1298.7 ± 1 | 1077.3 ± 1 | 1280.7 ± 1 | 1072.5 ± 1 | 1262.7 ± 1 | 1067.6 ± 1
c1ccccc1 [benzene] | 1299.4 ± 0.8 | 873.54 ± 1 | 1276.1 ± 0.77 | 868.2 ± 1 | 1252.9 ± 0.76 | 862.84 ± 1
C1CCOCC1 [tetrahydropyran] | 1269.8 ± 0.8 | 879.13 ± 1 | 1246.8 ± 0.8 | 873.99 ± 1 | 1224.4 ± 0.8 | 868.83 ± 1
Cc1ccccc1 [toluene] | 1304.6 ± 0.8 | 862.18 ± 1 | 1283.2 ± 0.8 | 857.51 ± 1 | 1261.8 ± 0.8 | 852.82 ± 1
